Assay results: patent US6417195B1, “Isoquinoline derivatives and isoquinoline combinatorial libraries” (Lion Bioscience AG, priority 1999, dated 2002)

Test system: Streptococcus pyogenes
Assay: Anti-microbial screen
Format: cell-based
Details: growth at 4 hrs, OD 570 nm, Todd Hewitt Broth
Procedure: Streptococcus pyogenes (ATCC# 97-03 14289) were grown in Todd Hewitt Broth (THB) (Difco Laboratories #0492-17-6) overnight until they reached an optical density of (OD═0.636@ 570 nm) by reading 0.1 ml in a 96 well microtiter plate in a Molecular Devices Thermomax. This preparation was kept frozen as stocks in 30% v/v glycerol in 1.5 ml aliquots at −70° C. until use. Prior to experiments 1.5 ml aliquots were thawed and diluted into 50 ml THB. 200 ul of this dilution was added to 92 wells of microtiter plate. To three wells THB (200 ul) was added to serve as a blank and a sterility control. Test compounds in DMSO and appropriate concentrations of DMSO were added to Growth/Solvent Controls at 0 time. Plates were read at 0 time at 570 nm in the Molecular Devices plate reader to obtain compounds correction factors for insoluble or colored compounds. Plates were read again at 4 hrs.
Percent inhibition was calculated with the following formulae:
Color correct=(O.D. 0 hr−Blank 0 hr)−(Solvent Control 0 hr−Blank 0 hr)
% Inhibition=100−O.D. test compound 4 hr−Blank 4 hr−color correct
O.D. growth/solvent control 4 hr−Blank 4 hr

Question: With CN(C)CCN(CC(N)=O)C(=O)CCN1C(=O)c2ccccc2C(C(=O)NCCN2CCCC2)C1c1ccc(O)c(O)c1 (stereo not drawn) [Compound 2520-1] as the molecule, how does the “% Inhibition” value read?
Answer: The value was 9%.

Question: How did the “% Inhibition” value turn out when CN(C)CCN(CC(N)=O)C(=O)CCN1C(=O)c2ccccc2C(C(=O)NC2CCC(C(C)(C)C)CC2)C1c1ccc(O)c(O)c1 (stereo not drawn) [Compound 2520-2] was run?
Answer: The value was 94%.

Question: How did the “% Inhibition” value turn out when CCCCN(CCCC)CCN(CC(N)=O)C(=O)CCN1C(=O)c2ccccc2C(C(=O)NCCN(CC)c2cccc(C)c2)C1c1ccc(O)c(O)c1 (stereo not drawn) [Compound 2520-721] was run?
Answer: The value was 86%.

Question: How did the “% Inhibition” value turn out when CCCCOCCCNC(=O)C1c2ccccc2C(=O)N(CCC(=O)N(CCN(CCCC)CCCC)CC(N)=O)C1c1ccc(O)c(O)c1 (stereo not drawn) [Compound 2520-722] was run?
Answer: Its value is 58%.

Question: CCN1CCCC1CN(CC(N)=O)C(=O)CCN1C(=O)c2ccccc2C(C(=O)NCCCN2CCCCC2C)C1c1cccc([N+](=O)[O-])c1 (stereo not drawn) [Compound 2520-2341] was tested. Which “% Inhibition” value did it give?
Answer: Its value is 104%.

Question: CCN(CCNC(=O)C1c2ccccc2C(=O)N(CCC(=O)N(CC(N)=O)Cc2ccccc2)C1c1ccc(N(C)C)cc1)c1cccc(C)c1 (stereo not drawn) [Compound 2520-3137] was tested. Which “% Inhibition” value did it give?
Answer: Its value is 66%.

Question: Which “% Inhibition” value does the source give for CCCCOCCCNC(=O)C1c2ccccc2C(=O)N(CCC(=O)N(CC(N)=O)Cc2ccccc2)C1c1ccc(N(C)C)cc1 (stereo not drawn) [Compound 2520-3138] here?
Answer: Its value is 19%.

Question: For CCOC(=O)CC(C)NC(=O)C1c2ccccc2C(=O)N(CCC(=O)N(CCN(C)C)CC(N)=O)C1c1cccc(Oc2ccccc2)c1 (stereo not drawn) [Compound 2520-4745], which “% Inhibition” value is on record?
Answer: Its value is 99%.

Question: How did the “% Inhibition” value turn out when C=CCNC(=O)C1c2ccccc2C(=O)N(CCC(=O)N(CCN(C)C)CC(N)=O)C1c1cccc(Oc2ccccc2)c1 (stereo not drawn) [Compound 2520-4746] was run?
Answer: The value was 100%.

Question: For CCN(CCNC(=O)C1c2ccccc2C(=O)N(CCC(=O)N(CC(N)=O)NC(=O)OC)C1c1cc(C(F)(F)F)cc(C(F)(F)F)c1)c1cccc(C)c1 (stereo not drawn) [Compound 2520-5545], which “% Inhibition” value is on record?
Answer: The value was 86%.

Question: How did the “% Inhibition” value turn out when CCCCOCCCNC(=O)C1c2ccccc2C(=O)N(CCC(=O)N(CC(N)=O)NC(=O)OC)C1c1cc(C(F)(F)F)cc(C(F)(F)F)c1 (stereo not drawn) [Compound 2520-5548] was run?
Answer: Its value is 43%.

Question: For CCN1CCCC1CN(CC(N)=O)C(=O)CCN1C(=O)c2ccccc2C(C(=O)N2CCN(Cc3ccccc3)CC2)C1c1ccc(-c2ccccc2)cc1 (stereo not drawn) [Compound 2520-6332], which “% Inhibition” value is on record?
Answer: Its value is 98%.

Question: How did the “% Inhibition” value turn out when CCN1CCCC1CN(CC(N)=O)C(=O)CCN1C(=O)c2ccccc2C(C(=O)N2CCN(C)CC2)C1c1ccc(-c2ccccc2)cc1 (stereo not drawn) [Compound 2520-6333] was run?
Answer: The value was 78%.

Question: How did the “% Inhibition” value turn out when CCN1CCCC1CN(CC(N)=O)C(=O)CCN1C(=O)c2ccccc2C(C(=O)NCCCN2CCCCC2C)C1c1ccc(N(C)C)cc1 (stereo not drawn) [Compound 2520-7125] was run?
Answer: The value was 100%.

Question: For CCOC(=O)CCNC(=O)C1c2ccccc2C(=O)N(CCC(=O)N(CC(N)=O)CC2CCCN2CC)C1c1ccc(N(C)C)cc1 (stereo not drawn) [Compound 2520-7126], which “% Inhibition” value is on record?
Answer: The value was 26%.

Question: How did the “% Inhibition” value turn out when CCN(CCNC(=O)C1c2ccccc2C(=O)N(CCC(=O)N(CC(N)=O)CC2CCCN2CC)C1c1ccc(SC)cc1)c1cccc(C)c1 (stereo not drawn) [Compound 2520-7921] was run?
Answer: Its value is 100%.

Question: Which “% Inhibition” value does the source give for CCCCOCCCNC(=O)C1c2ccccc2C(=O)N(CCC(=O)N(CC(N)=O)CC2CCCN2CC)C1c1ccc(SC)cc1 (stereo not drawn) [Compound 2520-7922] here?
Answer: The value was 87%.

Question: For CN(C)CCN(CC(N)=O)C(=O)c1ccc(CN2C(=O)c3ccccc3C(C(=O)NCCN3CCCC3)C2c2ccccc2)cc1 (stereo not drawn) [Compound 2530-1], which “% Inhibition” value is on record?
Answer: Its value is 44%.

Question: CN(C)CCN(CC(N)=O)C(=O)c1ccc(CN2C(=O)c3ccccc3C(C(=O)NCc3cccnc3)C2c2ccccc2)cc1 (stereo not drawn) [Compound 2530-2] was tested. Which “% Inhibition” value did it give?
Answer: Its value is 51%.

Question: For NC(=O)CN(CCN1CCCCC1)C(=O)c1ccc(CN2C(=O)c3ccccc3C(C(=O)NCCN3CCCC3)C2c2ccccc2)cc1 (stereo not drawn) [Compound 2530-865], which “% Inhibition” value is on record?
Answer: The value was 20%.

Question: With NC(=O)CN(CCN1CCCCC1)C(=O)c1ccc(CN2C(=O)c3ccccc3C(C(=O)NCc3cccnc3)C2c2ccccc2)cc1 (stereo not drawn) [Compound 2530-866] as the molecule, how does the “% Inhibition” value read?
Answer: Its value is 11%.

Question: For CCCN(CC(N)=O)C(=O)C1CCC(CN2C(=O)c3ccccc3C(C(=O)NCCN3CCCC3)C2c2cccc(C)n2)CC1 (stereo not drawn) [Compound 2530-1537], which “% Inhibition” value is on record?
Answer: The value was 4%.

Question: How did the “% Inhibition” value turn out when CCCN(CC(N)=O)C(=O)C1CCC(CN2C(=O)c3ccccc3C(C(=O)NCc3cccnc3)C2c2cccc(C)n2)CC1 (stereo not drawn) [Compound 2530-1538] was run?
Answer: Its value is 15%.

Question: For NC(=O)CN(CCN1CCOCC1)C(=O)c1ccc(CN2C(=O)c3ccccc3C3C(=O)N4CCN(Cc5ccccc5)c5c(-c6ccccc6)ccc(c54)C32)cc1 (stereo not drawn) [Compound 2530-2501], which “% Inhibition” value is on record?
Answer: Its value is 109%.

Question: Which “% Inhibition” value does the source give for CCN(CC)CCCC(C)NC(=O)C1c2ccccc2C(=O)N(Cc2ccc(C(=O)N(CC(N)=O)CC3CCCN3CC)cc2)C1c1ccc(O)cc1 (stereo not drawn) [Compound 2530-3185] here?
Answer: The value was 4%.

Question: For CCN1CCCC1CN(CC(N)=O)C(=O)c1ccc(CN2C(=O)c3ccccc3C(C(=O)NC3CCC(C(C)(C)C)CC3)C2c2ccc(O)cc2)cc1 (stereo not drawn) [Compound 2530-3186], which “% Inhibition” value is on record?
Answer: The value was 101%.

Question: CCc1ccc(C2C(C(=O)NCCN(C)C)c3ccccc3C(=O)N2Cc2ccc(C(=O)N(CCOC)CC(N)=O)cc2)cc1 (stereo not drawn) [Compound 2530-4162] was tested. Which “% Inhibition” value did it give?
Answer: The value was 30%.

Question: For CSc1ccc2c3c1C(Br)CCN3C(=O)C1c3ccccc3C(=O)N(Cc3ccc(C(=O)N(CCc4ccc(Cl)cc4Cl)CC(N)=O)cc3)C21 (stereo not drawn) [Compound 2530-4401], which “% Inhibition” value is on record?
Answer: The value was 45%.

Question: CSc1ccc(C2C(C(=O)NCCN(C)C)c3ccccc3C(=O)N2Cc2ccc(C(=O)N(CCc3ccc(Cl)cc3Cl)CC(N)=O)cc2)cc1 (stereo not drawn) [Compound 2530-4402] was tested. Which “% Inhibition” value did it give?
Answer: The value was 96%.

Question: How did the “% Inhibition” value turn out when CC(C)(C)C1CCC(NC(=O)C2c3ccccc3C(=O)N(CC3CCC(C(=O)N(CCCn4ccnc4)CC(N)=O)CC3)C2c2ccccc2)CC1 (stereo not drawn) [Compound 2530-4818] was run?
Answer: The value was 61%.

Question: For NC(=O)CN(CCCn1ccnc1)C(=O)C1CCC(CN2C(=O)c3ccccc3C3C(=O)N4CCC(N5CCCC5)c5cccc(c54)C32)CC1 (stereo not drawn) [Compound 2530-4819], which “% Inhibition” value is on record?
Answer: The value was 20%.

Question: Which “% Inhibition” value does the source give for C=CCN(CC(N)=O)C(=O)c1ccc(CN2C(=O)c3ccccc3C3C(=O)N4CCOc5c(O)ccc(c54)C32)cc1 (stereo not drawn) [Compound 2530-6447] here?
Answer: Its value is 8%.

Question: Which “% Inhibition” value does the source give for C=CCN(CC(N)=O)C(=O)c1ccc(CN2C(=O)c3ccccc3C(C(=O)NCCCCCCCCCCCC)C2c2ccc(O)cc2)cc1 (stereo not drawn) [Compound 2530-6448] here?
Answer: Its value is 53%.
